Read-outs that look alike come from different tables or passages of the source.
Assays:
[1] = no concentration stated
[2] = cited from earlier work

solubility in ethanol (qualitative) [1]: only slightly soluble | solubility in propylene glycol (qualitative) [1]: soluble | solubility in water (qualitative) [1]: almost completely insoluble
SMILES: COc1cc(Cc2cnc(N)nc2N)cc(OC)c1OC [Trimethoprim]
solubility ([2]; 95% Ethanol): 0.81 g/100 mL | solubility ([2]; Absolute Ethanol): 0.35 g/100 mL | solubility ([2]; Acetone): 0.35 g/100 mL | solubility ([2]; Benzene): 0.002 g/100 mL | solubility ([2]; Benzyl Alcohol): 7.29 g/100 mL | solubility ([2]; Carbon Tetra-Chloride): 0.002 g/100 mL | solubility ([2]; Choroform): 1.82 g/100 mL | solubility ([2]; Diethyl Ether): 0.00 g/100 mL | solubility ([2]; Dimethyl Acetamide): 13.86 g/100 mL | solubility ([2]; Methanol): 1.21 g/100 mL | solubility ([2]; Petroleum Ether): 0.02 g/100 mL | solubility ([2]; Propylene Glycol): 2.57 g/100 mL | solubility ([2]; Water): 0.04 g/100 mL

Source: patent US10335518B2, “Catheter locking formulation and method to prepare same” (priority 2013, dated 2019)
